Results on four compounds are retold here after publication PMC7136958, “Targeting the pregnane X receptor using microbial metabolite mimicry” (EMBO Molecular Medicine, 2020).

Series [1] deals with T1, AhR (Homo sapiens, UniProt P35869).
T1 construct: endogenous in cells; host or cells: AZ-AHR (HepG2)
T1 sequence (P35869 11-848): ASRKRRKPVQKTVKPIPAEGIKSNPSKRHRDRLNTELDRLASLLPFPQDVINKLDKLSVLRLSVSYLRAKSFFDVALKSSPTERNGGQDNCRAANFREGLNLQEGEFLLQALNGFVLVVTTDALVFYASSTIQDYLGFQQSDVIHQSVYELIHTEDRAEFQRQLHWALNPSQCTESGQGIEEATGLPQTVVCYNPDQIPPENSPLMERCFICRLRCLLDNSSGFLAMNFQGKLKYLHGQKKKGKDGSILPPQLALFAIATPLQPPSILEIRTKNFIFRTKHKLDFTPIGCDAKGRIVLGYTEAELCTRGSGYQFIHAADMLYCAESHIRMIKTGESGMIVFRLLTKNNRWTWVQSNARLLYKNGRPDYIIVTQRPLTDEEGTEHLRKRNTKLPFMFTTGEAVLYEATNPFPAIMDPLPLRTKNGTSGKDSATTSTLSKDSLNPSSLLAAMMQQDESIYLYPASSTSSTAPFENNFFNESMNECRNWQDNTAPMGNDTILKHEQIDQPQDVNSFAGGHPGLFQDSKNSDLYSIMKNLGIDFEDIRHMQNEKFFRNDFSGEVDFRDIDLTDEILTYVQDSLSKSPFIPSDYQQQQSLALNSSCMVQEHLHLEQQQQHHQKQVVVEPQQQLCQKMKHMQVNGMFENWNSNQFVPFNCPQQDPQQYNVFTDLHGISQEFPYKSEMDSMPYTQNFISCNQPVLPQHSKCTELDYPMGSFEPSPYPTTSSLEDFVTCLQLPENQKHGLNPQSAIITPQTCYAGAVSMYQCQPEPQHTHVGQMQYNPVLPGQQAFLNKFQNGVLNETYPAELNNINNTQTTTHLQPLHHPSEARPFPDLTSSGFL
Put plainly: AhR reporter assay, HepG2 cells stably expressing pCYP1A1 luciferase (AZ-AHR). Format: cell-based. As to the method:
Incubations were performed in four technical replicates.

Series [2] deals with T2, PXR (Homo sapiens, UniProt O75469).
T2 sequence (O75469 1-434): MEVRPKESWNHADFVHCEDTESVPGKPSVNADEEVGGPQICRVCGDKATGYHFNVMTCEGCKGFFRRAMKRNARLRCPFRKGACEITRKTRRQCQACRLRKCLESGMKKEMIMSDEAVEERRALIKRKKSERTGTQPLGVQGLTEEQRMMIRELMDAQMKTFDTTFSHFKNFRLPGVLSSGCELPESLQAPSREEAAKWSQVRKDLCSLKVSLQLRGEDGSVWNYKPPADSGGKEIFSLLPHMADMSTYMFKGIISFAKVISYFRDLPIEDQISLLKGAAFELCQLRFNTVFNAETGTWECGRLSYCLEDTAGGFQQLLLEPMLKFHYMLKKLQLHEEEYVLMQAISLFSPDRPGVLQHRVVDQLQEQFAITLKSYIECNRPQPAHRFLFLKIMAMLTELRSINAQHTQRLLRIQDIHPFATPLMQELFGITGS
Put plainly: PXR reporter (p3A4-luc luciferase) assay in LS180 cells transiently transfected with wild-type PXR. As to the method: Incubations were performed in four technical replicates. After the treatments, cells were lysed and luciferase activity was measured on Tecan Infinite M200 Pro plate reader (Schoeller Instruments, Prague, Czech Republic). The data are expressed as fold induction ± SD of luciferase activity over the control cells (agonistic mode—in the absence of a model ligand) or as a percentage of maximal activation ± SD (antagonistic mode—in the presence of a model ligand). […] For all the transfection experiments, specifically multiplexed transfections, the control wells were mock‐transfected ([…]). However, to exclude non‐specific binding of PXR (or other factors) upstream of the luciferase gene within non‐PXR‐binding elements, we performed pilot experiments in different cell passages (P11, P14, and P17) of LS174T cells using a mock luciferase plasmid (luciferase not containing an upstream PXR‐binding element of the CYP3A4 promoter).

Series [3] has as its target T3, hPXR-LBD (PXR.1) (Homo sapiens, UniProt O75469).
T3 construct: made in house; host or cells: E. coli BL21-Gold
T3 sequence (O75469 146-433 limits assumed): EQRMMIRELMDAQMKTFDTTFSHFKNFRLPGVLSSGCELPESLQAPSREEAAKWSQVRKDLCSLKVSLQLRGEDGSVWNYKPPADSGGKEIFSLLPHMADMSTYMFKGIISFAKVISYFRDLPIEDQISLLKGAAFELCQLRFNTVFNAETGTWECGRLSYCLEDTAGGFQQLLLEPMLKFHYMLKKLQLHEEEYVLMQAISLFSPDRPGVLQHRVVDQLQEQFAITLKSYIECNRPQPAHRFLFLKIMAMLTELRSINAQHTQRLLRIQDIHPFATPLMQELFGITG
The experiment in a line: Isothermal titration calorimetry with His-tagged hPXR-LBD. The series is classed as binding. As to the method: The cloning, expression, and purification of His‐tagged PXR‐LBD were performed as previously published (Wallace et al, 2013) with the following modifications: For protein expression, Luria–Bertani (LB) media were inoculated with a saturated culture of BL21‐Gold cells transformed with HIS‐LIC plasmid containing the PXR‐LBD construct. The mixture was allowed to shake at 37°C until the cells reached an OD600 ~ 0.6, and then, the temperature was reduced to 18°C, at which time IPTG was added (final concentration of 0.1 mM) to induce protein expression. For purification, the His‐tag was not removed, and the uncleaved protein was loaded onto the gel filtration column with buffer containing HEPES (4‐(2‐hydroxyethyl)‐1‐piperazineethanesulfonic acid) (25 mM, pH 7.5) and NaCl (150 mM).
Isothermal titration calorimetry (ITC) was carried out using a VP‐ITC microcalorimeter from MicroCal⁄Malvern Instruments (Northampton, MA, USA). […] In all the experiments, the ligand solution was injected in 10 μl aliquots into the calorimetric cell containing PXR‐LBD (ligand‐binding domain) at a concentration of 3–6 μM. […] The experiments were carried out at 37°C. The heat evolved upon each injection of the ligands was obtained from the integral of the calorimetric signal. The heat associated with binding to PXR‐LBD in the cell was obtained by subtracting the heat of dilution from the heat of reaction.

Series [4] concerns NF-κB. Put plainly: TNF-α-induced NF-κB reporter assay in LS174T PXR-KO cells. The conditions noted are these: LS174T PXR-KO, EXP3; 10 μM + TNFα 5 ng/ml; TNFa 5 ng/ml = 100; listed as RIF. An excerpt:
In early passage PXR‐KO cells, we used PXR and NF‐κB reporter‐co‐transfected and NF‐κB reporter‐transfected PXR‐KO cell line.
CRISPR/Cas9‐mediated knockout cells were generated by Synthego Corporation (Redwood City, CA, USA). Briefly, cells were first tested negative for mycoplasma. Guide RNA was selected for high activity, specificity, and activity to create premature stop codons through frameshift mutations in the coding region via insertions and/or deletions (Indels) within exon 2 of the gene encoding human PXR (NR1I2 transcript ID ENST00000337940). […] To generate these cells, ribonucleoproteins (RNPs) containing the Cas9 protein and synthetic chemically modified sgRNA (Synthego) were electroporated into the cells using Synthego's optimized protocol. Editing efficiency is assessed upon recovery, 48 h post‐electroporation. Genomic DNA is extracted from a portion of the cells, PCR‐amplified, and sequenced using Sanger sequencing. The resulting chromatograms are processed using Synthego Inference of CRISPR Edits software (ice.synthego.com).

Series [5] concerns CYP1A1, CYP3A4, MDR1 mRNA in HepaRG cells. The conditions noted are these: for 1A1 mRNA fold to C: normalised to GAPDH, fold vs UT. As to the method: Caco‐2 cells were purchased from ATCC, and authenticity was validated by multiplexed STR DNA (short tandem repeat deoxyribonucleic acid) profiling performed by Genetica. […] Cells were maintained at 37°C and 5% CO2 in a humidified incubator. […] Three HepaRG™‐derived cell lines, including 5F Clone control cells, and cells with targeted functional PXR and AhR gene knockouts, PXR‐KO and AhR‐KO, respectively, were purchased from Sigma (Czech Republic). Cells were handled according to the manufacturer's protocol. Human hepatocytes were purchased from Biopredic International (France) and Triangle Research Labs, LLC, Lonza (USA). Cultures were maintained in serum‐free medium at 37°C and 5% CO2 in a humidified incubator.
The measurements were performed in triplicate.

Series [6] deals with CYP1A1, CYP3A4, MDR1 mRNA in LS180 cells. Put plainly: qRT-PCR of CYP1A1, CYP3A4, MDR1 mRNA in LS180 cells with or without (mock) transfected PXR. The conditions noted are these: normalised to GAPDH, fold to UT control.
Description: (§1) Cells or primary human hepatocytes from four different donors (HEP200529, HEP220932, HEP200533, and HEP200538) were incubated for 24 h with test compounds; the vehicle was DMSO (0.1% v/v). Total RNA was isolated using TRI Reagent® (Molecular Research Center, Ohio, USA). cDNA was synthesized from 1,000 ng of total RNA using M‐MuLV Reverse Transcriptase (New England Biolabs, Ipswich, Massachusetts, USA) at 42°C for 60 min in the presence of random hexamers (New England Biolabs). Quantitative reverse transcriptase–polymerase chain reaction (qRT–PCR) was performed using LightCycler® 480 Probes Master on a LightCycler® 480 II apparatus (Roche Diagnostic Corporation).
(§2) The following protocol was used: An activation step at 95°C for 10 min was followed by 45 cycles of PCR (denaturation at 95°C for 10 s; annealing with elongation at 60°C for 30 s). The measurements were performed in triplicate. Gene expression was normalized per GAPDH as a housekeeping gene. […] Data are expressed as fold induction ± SD over the vehicle‐treated cells. The bar graph depicts one representative experiment of a series of experiments performed in three consecutive passages of cells. Differences were tested using one‐way ANOVA with Dunnett's post hoc test, and P < 0.05 was considered significant.
In series [7] the test system is CYP1A1, CYP3A4, MDR1 mRNA in primary human hepatocytes. Put plainly: qRT-PCR of CYP1A1, CYP3A4, MDR1 mRNA in primary human hepatocytes (four donors). As to conditions: for CYP1A1 (1A1) mRNA, fold to C: primary human hepatocytes, fold vs untreated (UT).
Description: as §1, §2
[8] abbreviates: LS180, read-out: FOLD INDUCTION of PXR reporter luciferase activity.

Several values for one entry are separate records, joined by “and”; a condition that tells them apart may be missing. Equal values may be shown once. Read-outs that look alike come from different tables or passages of the source.

As to `Cc1[nH]c2ccccc2c1C(c1c(C)[nH]c2ccccc12)c1c(C)[nH]c2ccccc12` [FKK999, reference compound], the “AhR activation (in words)” value in series [1] is “variable degrees of dose‐dependent AhR activation profiles”. This compound also showed a fold induction at 24 h, 0.001 µM in series [1] (human, AZ-AHR cells, 1 nM, fold vs DMSO) of 1. Moreover, the fold induction at 24 h, 0.01 µM in series [1] (human, AZ-AHR cells, 10 nM, fold vs DMSO) worked out at 1. The fold induction at 24 h, 0.1 µM in series [1] (human, AZ-AHR cells, 100 nM, fold vs DMSO) was found to be 3.5. Besides, the fold induction at 24 h, 1 µM in series [1] (human, AZ-AHR cells, 1µM, fold vs DMSO) came to 10.2. In addition, the fold induction at 24 h, 10 µM in series [1] (human, AZ-AHR cells, 10 µM, fold vs DMSO) worked out at 28.2. Besides, the “aver (mean luciferase signal of H1-H4)” value in series [2] (1 nM) was found to be 2509.3. Moreover, the “aver (mean luciferase signal of H1-H4)” value in series [2] (10 nM) was 3525.3. The “aver (mean luciferase signal of H1-H4)” value in series [2] (100 nM) came out at 5905.5. Also, the “aver (mean luciferase signal of H1-H4)” value in series [2] (1 uM) was determined as 26021.5. The “aver (mean luciferase signal of H1-H4)” value in series [2] (10 uM) came to 42646.5. Moreover, the “aver (mean luciferase signal of H1-H4)” value in series [2] (25 uM) is listed as 44375.0. In series [2] (50 uM), the “aver (mean luciferase signal of H1-H4)” value was found to be 44986.8. In addition, in series [2] (setting [8]), the fold induction at 0.001 µM stood at 1.39, the fold induction at 0.01 µM came to 1.95, the fold induction at 0.1 µM stood at 3.27 and the fold induction at 1 µM was 14.4. Further, in series [2] (setting [8]), the fold induction at 10 µM is 23.6, the fold induction at 25 µM came to 24.5 and the fold induction at 50 µM was found to be 24.9. Also, the “PXR activation (in words)” value in series [2] (cell-based transactivation) is listed as “activated PXR”.
For the compound `O=C(O)CCc1c[nH]c2ccccc12` [IPA, indole‐3‐propionic acid, reference compound], the “thermal signature of interaction with hPXR-LBD” value in series [3] is given as “did not induce a thermal signature”.
As for `CO[C@H]1/C=C/O[C@@]2(C)Oc3c(C)c(O)c4c(O)c(c(/C=N/N5CCN(C)CC5)c(O)c4c3C2=O)NC(=O)/C(C)=C\C=C\[C@H](C)[C@H](O)[C@@H](C)[C@@H](O)[C@@H](C)[C@H](OC(C)=O)[C@@H]1C` [Rifampicin, reference compound], the NFkB %max in series [4] is 94.8% and 94.84%.
For the compound `Clc1cc2c(cc1Cl)Oc1cc(Cl)c(Cl)cc1O2` [TCDD, 2,3,7,8‐tetrachlorodibenzo‐p‐dioxin, reference compound], the fold induction at 24 h in series [1] (human, AZ-AHR cells, positive control, fold vs UT, concentration not given) worked out at 485. Besides, the “1A1 mRNA fold to C” value was found to be 1.24 fold in series [5] (HepaRG AHR-KO) and 151.69 fold in series [5] (HepaRG CONTROL 5F Clone). Also, the “CYP1A1 (1A1) mRNA, fold to C” value in series [5] (HepaRG PXR-KO cells, qRT-PCR normalised to GAPDH, fold vs untreated (UT)) was found to be 338.18 fold; in series [7] (donor Hep200529, normalised to GAPDH) it was 394.35 fold; in series [7] (donor Hep200533, normalised to GAPDH), 1246.21 fold; in series [7] (donor Hep220932, normalised to GAPDH) it was 962.07 fold. In addition, the “CYP1A1 mRNA induction” value in series [5] (HepaRG control 5F clone, PXR-KO, AhR-KO) was “induces”; in series [7] (four donors) it was “induced CYP1A1 mRNA in all cells”. The “CYP1A1 mRNA fold to C” value is 1299.13 in series [6] (PXR-transfected LS180 cells); 2347.10 in series [6] (mock-transfected LS180 cells); 10734.74 in series [7] (primary human hepatocytes donor Hep200538, normalised to GAPDH, fold to UT control).
